Data from PMC9404711 (Antibiotics, 2022).
Like-named read-outs stand apart in the source and are kept apart here. Positions of bridges follow the written chain, without caps; N, C: chain ends. Non-standard residues stand in square brackets, D forms with d. Residues, ends and D or L forms follow the SMILES beside them. *: point of attachment. X1 = CC[C@H](C)CCCCC(=O)*; Dab = NCC[C@H](N)C(=O)O

Assays:
[1] = Hydrophobicity by analytical RP-HPLC (%B at elution); assay type: physicochemical; conditions: chromatographic, analytical reversed-phase HPLC, Waters Symmetry C18 5 μm 4.6 × 250 mm; A: H2O + 0.1% TFA, B: 90:10 ACN-H2O + 0.1% TFA
Protocol: Peptide purity was determined as described previously by analytical RP-HPLC using a Waters 717 plus Autosampler, In-line Degasser AF, 600 Controller, and 2996 Photodiode Array Detector; the column used was a Waters Symmetry C18 column (5 μm, 4.6 mm × 250 mm, Milford, MA, USA). An aqueous acetonitrile (ACN) gradient with 0.1% TFA added (mixing eluent A: H2O + 0.1% TFA and eluent B: 90:10 ACN-H2O + 0.1% TFA) was employed using milli-Q water. Preparative RP-HPLC was performed by using a Waters XSelect Peptide CSH C18 OBDTM column (5 μm, 19 mm × 250 mm, Milford, MA, USA) with the same eluents as for analytical HPLC.
*Hydrophobicity as indicated by the percentage of mobile phase B (%B) at the peak elution time on analytical

[2] = tested on: S. aureus (ATCC 29213); test: MIC determination, broth microdilution; assay type: cell-based, Staphylococcus aureus; conditions: S. aureus ATCC 29213, MHB-II, 37 °C, 18–24 h, triplicate
Protocol: (§1) The following bacteria were grown in cation-adjusted Muller-Hinton broth at 37 °C with shaking: A. baumannii (ATCC 19606), E. coli (ATCC 25922), K. pneumoniae (ATCC 13883), P. aeruginosa (ATCC 27853), and S. aureus (ATCC 29213).
(§2) The MIC experiments were performed in triplicate, as described in Jensen et al.. Briefly, all peptide stock solutions were prepared by dissolving each peptide in Milli-Q water to obtain a concentration of 10 mg/mL. A bacterial concentration of 10^6 CFU/mL was obtained through the dilution of an overnight culture (MHB-II medium). When the overnight culture was prepared, the OD was measured using a spectrophotometer and when an OD value between 0.2 and 0.4 was obtained, the culture was diluted to OD = 0.002. The MIC determination was carried out in 96-well polypropylene microtitre plates. […] A final bacterial inoculum of 5 × 10^5 CFU/mL per well was obtained by adding 50 μL bacterial suspension to the microtiter plates. The plates were incubated at 37 °C for 18–24 h. To verify the CFU, 10 μL of bacteria suspension was transferred to 990 μL 0.9 % saline solution, from which a 10-fold dilution was carried out. Then, 100 μL of the dilution was plated on an LB plate and left for bacterial growth overnight at 37 °C. Colistin and vancomycin were used as the positive controls.

[3] = tested on: E. coli (ATCC 25922); assay type: cell-based, Escherichia coli
Protocol: as §1, §2

[4] = tested on: P. aeruginosa (ATCC 27853); assay type: cell-based, Pseudomonas aeruginosa
Protocol: as §1, §2

[5] = tested on: A. baumannii (ATCC 19606); assay type: cell-based, Acinetobacter baumannii
Protocol: as §1, §2

[6] = tested on: K. pneumoniae (ATCC 13883); assay type: cell-based, Klebsiella pneumoniae
Protocol: as §1, §2

[7] = tested on: human erythrocytes; conditions: 150 μM peptide; 0.5% (v/v) red blood cell suspension in PBS, 1 h at 37 °C, absorbance 414 nm; melittin positive control, PBS negative control; three wells
Protocol: PBS served as the negative control and 5 μM melittin served as the positive control. All melittin solutions were prepared in Protein LoBind Eppendorf tubes to prevent the adsorption of melittin to the inner surface of the tubes.
Preparation of peptide solutions and melittin: A 5 μM melittin solution in PBS was prepared the day before the hemolysis experiment. First, 150 μL of this solution was transferred to each of the positive control wells and stored in the fume hood to coat the wells. On the day of the experiment, the melittin solution was discarded and the wells were washed with 3 × PBS. A 2.5 μM melittin solution in PBS was prepared and 75 μL was transferred to the wells. PBS (150 μL) was used as the negative control. A solution of each peptide was prepared by dissolving the peptide in 0.5 mL PBS to obtain a concentration of 300 μM. Each peptide solution (150 μL) was transferred to the wells in three wells each in row A, and the plate was diluted down.
Preparation of the red blood cell suspension: 1 mL of type O- whole blood in citrate was transferred to a cryotube. The whole blood was washed with 3 × PBS; adding 3, 3, and 4 mL of PBS, respectively. In between, the blood was centrifuged for 8 min (3000, 3000, and 4000 rpm, respectively) and the supernatant was removed after each centrifugation. A 0.5% (v/v) blood suspension was prepared by adding 40 μL of the washed blood cells to 8 mL of PBS. Then, 75 μL of the red blood cell suspension was transferred to each well and mixed gently. The plate was sealed and incubated for 1 h at 37 °C. After incubation, the plate was centrifuged at 4000 rpm for 10 min. Afterwards, 60 μL of the supernatant from each well was quickly transferred to an ELISA plate.
The absorbance was determined at 414 nm, and Equation (1) below was used to calculate the hemolytic activity of the peptides.

[8] = E. coli ATCC 25922, MHB-II, inoculum 5 × 10^5 CFU/mL, 37 °C, 18–24 h, triplicate
[9] = value in brackets, E. coli ATCC 25922, MHB-II, 37 °C, 18–24 h, triplicate
[10] = P. aeruginosa ATCC 27853, MHB-II, inoculum 5 × 10^5 CFU/mL, 37 °C, 18–24 h, triplicate
[11] = value in brackets, P. aeruginosa ATCC 27853, MHB-II, 37 °C, 18–24 h, triplicate
[12] = A. baumannii ATCC 19606, MHB-II, inoculum 5 × 10^5 CFU/mL, 37 °C, 18–24 h, triplicate
[13] = value in brackets, A. baumannii ATCC 19606, MHB-II, 37 °C, 18–24 h, triplicate
[14] = K. pneumoniae ATCC 13883, MHB-II, inoculum 5 × 10^5 CFU/mL, 37 °C, 18–24 h, triplicate
[15] = value in brackets, K. pneumoniae ATCC 13883, MHB-II, 37 °C, 18–24 h, triplicate

SMILES | %B (hydrophobicity: percentage of mobile phase B at the peak elution time) [1] | MIC SA ([2]; inoculum 5 × 10^5 CFU/mL) | MIC SA ([2]; value in brackets) | MIC EC [3, 8] | MIC EC [3, 9] | MIC PA [4, 10] | MIC PA [4, 11] | MIC AB [5, 12] | MIC AB [5, 13] | MIC KP [6, 14] | MIC KP [6, 15] | % hemolysis of human erythrocytes [7] | MIC EC ([3]; ATCC 25922) | MIC PA ([4]; ATCC 27853) | MIC AB ([5]; ATCC 19606) | MIC KP ([6]; ATCC 13883)
CCCCCCCCCCCC(=O)N[C@H](CCCCN)C(=O)N[C@H](CCCCN)C(=O)N[C@H](CC(C)C)C(=O)N[C@H](Cc1ccccc1)C(=O)N[C@H](CCCCN)C(=O)N[C@H](CCCCN)C(=O)N[C@@H](C(=O)N[C@H](CC(C)C)C(=O)N1CCCC[C@H](C(N)=O)NC(=O)[C@@H](Cc2ccc(O)cc2)NC(=O)[C@@H](CCCNC(=N)N)NC(=O)C1)[C@H](C)CC [compound 11] | 66.2 %B | 4 µg/mL | 2.3 µM | 4 µg/mL | 2.3 µM | 4 µg/mL | 2.3 µM | 4 µg/mL | 2.3 µM | 8 µg/mL | 4.6 µM | – | – | – | – | –
CCCCCCCCCCCC(=O)N[C@H](CCCCN)C(=O)N[C@H](CCCCN)C(=O)N[C@H](CC(C)C)C(=O)N[C@H](Cc1ccccc1)C(=O)N[C@H](CCCCN)C(=O)N[C@H](CCCCN)C(=O)N[C@@H](C(=O)N1CCCC[C@H](C(N)=O)NC(=O)[C@@H](Cc2ccc(O)cc2)NC(=O)[C@@H](CCCNC(=N)N)NC(=O)[C@@H](CC(C)C)NC(=O)C1)[C@H](C)CC [compound 14] | 65.1 %B | 4 µg/mL | 2.4 µM | 4 µg/mL | 2.4 µM | 4 µg/mL | 2.4 µM | 4 µg/mL | 2.4 µM | 16 µg/mL | 9.5 µM | – | – | – | – | –
CC[C@@H](C)[C@@H](NC(=O)[C@@H](CCCCN)NC(=O)[C@@H](CCCCN)NC(=O)[C@@H](Cc1ccccc1)NC(=O)[C@@H](CC(C)C)NC(=O)[C@@H](CCCCN)NC(=O)[C@H](N)CCCCN)C(=O)N1CCCC[C@H](C(N)=O)NC(=O)[C@@H](Cc2ccc(O)cc2)NC(=O)[C@@H](CCCNC(=N)N)NC(=O)[C@@H](CC(C)C)NC(=O)C1 [compound 8] | – | > 64 µg/mL | > 42.6 µM | > 64 µg/mL | > 42.6 µM | > 64 µg/mL | > 42.6 µM | > 64 µg/mL | > 42.6 µM | > 64 µg/mL | > 42.6 µM | 3% | – | – | – | –
CC[C@H](C)CCCCC(=O)N[C@@H](CCN)C(=O)N[C@H](C(=O)N[C@@H](CCN)C(=O)N[C@H]1CCNC(=O)[C@H]([C@@H](C)O)NC(=O)[C@H](CCN)NC(=O)[C@H](CCN)NC(=O)[C@H](CC(C)C)NC(=O)[C@@H](CC(C)C)NC(=O)[C@H](CCN)NC1=O)[C@@H](C)O [Colistin, reference compound] (X1-[Dab]T[Dab][Dab][Dab][dL]L[Dab][Dab]T; lactam 4-C (inferred); N-terminus assumed) | – | – | – | 0.25 µg/mL | – | 0.5 µg/mL | – | 0.25 µg/mL | – | 0.5 µg/mL | – | – | 0.2 µM | 0.4 µM | 0.2 µM | 0.4 µM
